According to ChEMBL document CHEMBL1155240, “Discovery of a new class of protein farnesyltransferase inhibitors in the arylthiophene series” (J Med Chem, 2009):
Activity calls are given as the source filed them. No cut-off for these calls is given here.

Target: not listed separately
Assay: Inhibition of yeast recombinant FTase by non-competitive Lineweaver-Burke plot using farnesyl pyrophosphate substrate
Parameters: species or system Saccharomyces cerevisiae
Conditions: not given

**Q.** For `CC(C)Sc1sc(C(=O)O)c(-c2ccc(Cl)cc2)c1C#N`, which Ki is on record?
**A.** The Ki was 110 nM.

Tested on: not listed separately
Assay: (§1) Inhibition of yeast recombinant FTase
Parameters: species or system Saccharomyces cerevisiae
Conditions: not given

**Q.** Which IC50 does the source give for `CC(C)Sc1sc(CO)c(-c2ccc(Cl)cc2)c1C#N` here?
**A.** The IC50 was “Not Active”.

**Q.** For `CON(C)C(=O)c1sc(SC(C)C)c(C#N)c1-c1ccc(Cl)cc1`, which IC50 is on record?
**A.** The IC50 was “Not Active”.

**Q.** With `CC(C)Sc1scc(-c2ccc(Cl)cc2)c1C#N` as the compound, how does the IC50 read?
**A.** The IC50 was “Not Active”.

Same assay, conditions: read-out: IC50

**Q.** Which IC50 does the source give for `CC(C)CSc1sc(C(=O)O)c(-c2ccc(Cl)cc2)c1C#N` here?
**A.** The IC50 was 890 nM.

**Q.** For `COC(=O)[C@@H](CCSC)NC(=O)c1sc(SC(C)C)c(C#N)c1-c1ccc(Cl)cc1`, which IC50 is on record?
**A.** The IC50 was 5700 nM.

**Q.** With `CC(C)Sc1nc(-c2ccc(Cl)cc2)c(C(=O)O)s1` as the compound, how does the IC50 read?
**A.** Its IC50 is 51000 nM.

**Q.** For `CC(=O)OCc1sc(SC(C)C)c(C#N)c1-c1ccc(Cl)cc1`, which IC50 is on record?
**A.** The IC50 was 45000 nM.

**Q.** For `N#Cc1c(SC2CCCCC2)sc(C(=O)O)c1-c1ccc(Cl)cc1`, which IC50 is on record?
**A.** Its IC50 is 1450 nM.

**Q.** With `CSc1sc(C(=O)O)c(-c2ccc(Cl)cc2)c1C#N` as the compound, how does the IC50 read?
**A.** Its IC50 is 610 nM.

**Q.** For `N#Cc1c(N2CCOCC2)sc(C(=O)O)c1-c1ccc(Cl)cc1`, which IC50 is on record?
**A.** Its IC50 is 28000 nM.

**Q.** For `CCSc1sc(C(=O)O)c(-c2ccc(Cl)cc2)c1C#N`, which IC50 is on record?
**A.** The IC50 was 325 nM.

**Q.** Which IC50 does the source give for `CCC(C)Sc1sc(C(=O)O)c(-c2ccc(Cl)cc2)c1C#N` (stereo unspecified) here?
**A.** Its IC50 is 345 nM.

**Q.** Which IC50 does the source give for `CCOC(=O)c1sc(SC(C)C)c(C#N)c1-c1ccc(Cl)cc1` here?
**A.** The IC50 was 3800 nM.

**Q.** For `CSc1sc(C(=O)NC2CC2)c(-c2ccc(Cl)cc2)c1C#N`, which IC50 is on record?
**A.** Its IC50 is 22000 nM.

**Q.** Which IC50 does the source give for `CCCCSc1sc(C(=O)O)c(-c2ccc(Cl)cc2)c1C#N` here?
**A.** Its IC50 is 1240 nM.

**Q.** For `CC(=O)c1sc(SC(C)C)c(C#N)c1-c1ccc(Cl)cc1`, which IC50 is on record?
**A.** Its IC50 is 790 nM.

**Q.** With `CC(C)Sc1c(C#N)c(-c2ccc(Cl)cc2)c(C(=O)O)n1C` as the compound, how does the IC50 read?
**A.** Its IC50 is 47000 nM.

**Q.** With `CSCC[C@@H](NC(=O)c1sc(SC(C)C)c(C#N)c1-c1ccc(Cl)cc1)C(=O)O` as the compound, how does the IC50 read?
**A.** Its IC50 is 7.5 nM.

**Q.** For `CC(C)Sc1oc(C(=O)O)c(-c2ccc(Cl)cc2)c1C#N`, which IC50 is on record?
**A.** Its IC50 is 2000 nM.

**Q.** Which IC50 does the source give for `CC(C)Sc1sc(C(N)=O)c(-c2ccc(Cl)cc2)c1C#N` here?
**A.** Its IC50 is 1100 nM.

**Q.** Which IC50 does the source give for `CC(C)Sc1sc(C(=O)O)c(-c2ccc(Cl)cc2)c1C#N` here?
**A.** Its IC50 is 110 nM.

Tested on: Saccharomyces cerevisiae
Assay: as §1
Conditions: not given

**Q.** For `CCOC(=O)c1c(-c2ccc(Cl)cc2)c(C#N)c(SC(C)C)n1C`, which Activity is on record?
**A.** The Activity was “inactive”.

**Q.** With `CCOC(=O)c1oc(SC(C)C)c(C#N)c1-c1ccc(Cl)cc1` as the compound, how does the Activity read?
**A.** The Activity was “inactive”.

**Q.** For `CCOC(=O)c1sc(SC(C)C)nc1-c1ccc(Cl)cc1`, which Activity is on record?
**A.** Its Activity is “inactive”.

Target: not listed separately
Assay: Inhibition of yeast recombinant FTase by Lineweaver-Burke plot
Parameters: species or system Saccharomyces cerevisiae
Conditions: not given

**Q.** For `CC(C)Sc1sc(C(=O)O)c(-c2ccc(Cl)cc2)c1C#N`, which Ki is on record?
**A.** Its Ki is 105 nM.
